Tests used:
[1] = system: E. coli K1 strain UTI89; assay: Secondary assay 2: T7 phage-mediated lysis assay; format: cell-based, Escherichia coli; details: n = 2, read-out: T7 phage IC50
Excerpt: D. Secondary Assay 2: Screening for Inhibitors of Bacterial Capsule Biogenesis—T7 Lysis Inhibition
Purpose: This secondary assay measures the compound mechanistic specificity for inhibition of bacterial capsule formation and excludes inhibitors of phage replication using a different bacteriophage (T7). In this assay, an increase in phage-induced lysis correlates to a decrease in capsule formation.
Purpose: This secondary assay measures the compound mechanistic specificity for inhibition of bacterial capsule formation using a different bacterial phage (T7). In this assay, an increase in phage-induced lysis correlates to a decrease in capsule formation.
Assay Description: T7 phage-mediated lysis assay: This assay determined if the mechanism of action of the compound is inhibition of phage infectivity or replication. The T7 phage has a nearly identical genome to K1F, without encoding an endosialidase. Its cycle of replication is similar to that of K1F as well. However, T7 entry into E. coli is inhibited by K capsules. This secondary assay was conducted in the 96 well plate format. […] Compounds were added in quadruplicate to plates in a concentration dependent manner in the range of 100-0.39 μM, followed by addition of 100 μL of bacterial culture. 1% DMSO (final well concentration) was included. The plates were tape sealed and shaken vigorously for 1.5 hr. An initial OD600 reading was measured to identify compounds that cause growth retardation or bacterial killing in the absence of phage. Next, T7 phage (5 μL) was added to all of the test wells. The plates were resealed and shaken vigorously at 37° C., and measurements of OD600 for phage-mediated lysis were taken after 3 hr. True inhibitors of capsule yielded bacteria that were susceptible to T7 phage and lysed within 2 hr of the addition of phage. […] The positive control drug C7 (100 μM final well concentration) was used in this screen.
T7 phage counter assay. This secondary assay was performed as previously described and was used to distinguish compounds with phage inhibitory effects from true polysaccharide capsule inhibitors. […] Thus, the presence of a capsule inhibits T7-mediated lysis. In this assay, an increase in phage-induced lysis correlates to a decrease in capsule formation. True inhibitors of capsule yielded bacteria that were susceptible to T7 phage and lysed within 2 hr of the addition of phage. […] The positive control molecule C7 (100 μM final well concentration) was used in this screen.

[2] = system: Bladder carcinoma 5637 cells; assay: Cytotoxicity counterscreen, CellTiter Glo, 72 hr; format: cell-based, human
Method: B. Counterscreen: Cytotoxicity Screening for Potential Inhibitors of Bacterial Capsule Biogenesis.
Purpose: This cell-based assay measures the cytotoxicity of compounds in bladder carcinoma 5637 cells using luminescent cell viability assay readout.
Cytotoxicity assay: The cytotoxicity assay was performed as described in Section 6: Appendix. Hit cytotoxicity and the 50% toxic concentration (CC50) was determined and compared to the IC50 to calculate the selectivity index.
Assay Description: Cytotoxicity: Dose response testing (dose range=300-0.58 μM) established the hit cytotoxicity data. Compounds were plated in 384-well microplates in a stacked dose response format using the same doses used in the efficacy dose response. Bladder carcinoma 5637 cells were added to the compounds, and 72 hr later cell viability was measured using CellTiter Glo (38). Hit cytotoxicity and the 50% toxic concentration (TC50) was determined and compared to the IC50 to calculate the therapeutic index. Test compounds are serially diluted in a plate to plate matrix or stacked plate matrix. All 320 compounds in a source plate are diluted together resulting in a 10 point dose response dilution series. It is visualized as a serial dilution series proceeding vertically through a stack of plates with the high dose plate on top and the low dose plate on the bottom.
Control Drug: Hyamine was used as a positive cytotoxic control. All wells contained 0.5% DMSO.
Preparation of Bladder carcinoma 5637 cells: Cells are harvested and resuspended to 80,000 cells per ml in Complete DMEM/F12®.
Endpoint Read: Following the three day incubation period, the assay plates were equilibrated to room temperature for 30 min and an equal volume (30 μL) of Cell Titer-Glo® reagent (Promega Inc.) is added to each well using a WellMate™ (Matrix, Hudson, N.H.) and plates are incubated for an additional 10 min at room temperature. At the end of the incubation, luminescence is measured using a Perkin Elmer Envision™ multi-label reader (PerkinElmer, Wellesley, Mass.) with an integration time of 0.1 s.
Cytotoxicity. Testing was performed essentially as previously described. Concentration-response testing was performed over a range 0.58-300 μM in a […] well plate format. Bladder carcinoma 5637 cells (ATCC HTB-9) were added to the compounds, and 72 hrs later cell viability was measured using CellTiter Glo (Promega). The 50% toxic concentration (TC50) was determined and compared to the IC50 to calculate the therapeutic index. Hyamine was used as a positive cytotoxic control. All wells contained 0.5% DMSO.

[3] = system: E. coli K1 strain UTI89; assay: microbe, parasite or virus in culture; details: read-out: K1 phage IC50, n = 3
Excerpt: The ability of the […] to bind to bacterial capsule, infect, and lyse E. coli UT189 was used as the primary assay to identify the effects of screened compounds on bacterial capsule formation. The phenotypic end-point assay measured the fluorescence generated by cellular processing of Alamar Blue as a direct indicator of cell viability. A total of […] compounds were screened using the primary assay. […] Hits were further evaluated using […] secondary assays for alternative measurement of compound-induced reduction in bacterial capsule formation (secondary assays 1 and 2) and specificity (secondary assays 3 and 4). Confirmed actives with an SI>5 were further investigated and subjected to chemical optimization, followed by secondary assay evaluation. Secondary assays more closely characterized the ability of the compounds to reduce bacterial capsule formation and can be used to examine the mechanism of action of the compounds. The combination of primary assay (to measure capsule reduction), counter assay (for general eukaryotic cell toxicity) and secondary assay (to measure reduction in capsule formation and specificity) were combined to allow a determination of probe efficacy, selectivity, and specificity.
A. Primary Assay: Screening for Inhibitors of Bacterial Capsule Biogenesis.
Primary assay: An end-point assay to measure the amount of K1 phage-induced bacterial cell lysis was employed to determine the compound effect on capsule biogenesis. K1 bacteriophage specifically binds the bacterial capsule during the initial stages of infection. Bacteria without capsule cannot be infected and lysed by the bacteriophage. […] A total of 338,740 compounds were screened at 100 μM in the primary screen Inhibition of phage lysis was calculated relative to the mean of the bacterial (positive) control on each microtiter plate. […] For calculation of S/B/Z value, and CV, the following formulae (in which SD stands for standard deviation) were used: S/B=mean signal/mean background; Z=1-3SD of sample+3SD of control mean of sample−mean of control; % CV=(SD mean signal/mean signal)×100.
IC50 values were calculated using a 4 parameter Levenburg-Marquardt algorithm, with the maximum and minimum locked at 0 and 100 respectively.
Primary assay: The primary assay was conducted in the 1,536 well plate format. Bacterial cultures of E. coli K1 strain UTI89 (cystitis isolate) and isogenic capsule mutant strains (as controls for phage infection) were grown and prepared at the screening center immediately prior to use. Overnight starting cultures of UTI89 were grown at 37° C., and inoculated into 1 liter of LB (starting OD600˜0.03), which was sufficient for screening 40 plates (including ˜10% waste) and ˜40,000 compounds as single points.
Control wells contained UTI89 (wt K1) with 0.5% DMSO as a simulated positive control; UTI89 with 0.5% DMSO and tetracycline for a negative growth control; and media plus vehicle control. 50 mL of LB Broth was inoculated with stock 150 μL E. coli UT189 and grown overnight at 37° C. The next day, cultures were diluted 1:75 in 1 L of LB Broth containing 0.5% DMSO. 3 μL of this culture was added to each plate well, and plates were incubated, inverted, at 37° C. for 2 hr. The K1F bacteriophage stock was diluted 1:8 in LB Broth containing 0.5% DMSO, and 1.5 μL of diluted phage (or media only) was added to the pre-plated test compound wells and appropriate control wells. The plates were centrifuged briefly, and then were incubated, inverted, at 37° C. for an additional 2 hr. Afterward, Alamar Blue reagent (Invitrogen, #DAL1100) was diluted 1:2 with LB broth and 1 μL was added to each plate well.

[4] = first round of synthetic analogues
[5] = second round of synthetic analogues

Row | SMILES | IC50 [1, 4] | IC50 [2] | IC50 [3, 4] | IC50 ([1]; purchased analogue series) | IC50 ([3]; purchased analogue series) | IC50 [1, 5] | IC50 [3, 5]
1 | COc1ccc(-c2cc(NC(=O)c3c(F)cccc3F)c(C(=O)O)s2)cc1 [compound 53470430] | 2.65 µM | 239 µM | > 100 µM | – | – | – | –
2 | CCOc1ccc(-c2cc(NC(=O)c3ccc(OC)c(OC)c3)c(C(=O)O)s2)cc1 [compound 23602082] | – | 72.3 µM | – | 8 µM | 57.9 µM | – | –
3 | O=C(O)c1sc(-c2ccccc2)cc1NC(=O)C1CCCC1 [compound 16393058] | – | 169 µM | – | 56.6 µM | > 100 µM | – | –
4 | Cc1ccc(-c2cc(NC(=O)c3cccc(F)c3)c(C(=O)O)s2)cc1 [compound 53470441] | 7.21 µM | 43.9 µM | 53.7 µM | – | – | – | –
5 | CC(C)c1ccc(-c2cc(NC(=O)c3ccc(Br)s3)c(C(=O)O)s2)cc1 [compound 53470432] | 2.75 µM | 33.1 µM | > 100 µM | – | – | – | –
6 | CCCCOc1ccc(-c2cc(NC(=O)c3c(F)cccc3F)c(C(=O)O)s2)cc1 [compound 56643007] | – | 42.6 µM | – | – | – | < 0.625 µM | < 0.78 µM
7 | [N-]=[N+]=NCCOc1ccc(-c2cc(NC(=O)c3c(F)cccc3F)c(C(=O)O)s2)cc1 [compound 56643025] | – | 273 µM | – | – | – | < 0.625 µM | 17.5 µM
8 | CCOc1ccc(-c2cc(NC(=O)c3c(F)cc(F)cc3F)c(C(=O)O)s2)cc1 [compound 56643006] | – | 76.6 µM | – | – | – | < 5 µM | 20 µM
9 | O=C(O)c1sc(-c2ccccc2)cc1NC(=O)C1CCCCC1 [compound 16393057] | – | 115 µM | – | 65.2 µM | > 100 µM | – | –
10 | CCOc1ccc(-c2cc(NC(=O)c3ccc(Br)s3)c(C(=O)O)s2)cc1 [compound 53470415] | 3.33 µM | 49.7 µM | 17 µM | – | – | – | –
11 | CCOc1ccc(-c2cc(NC(=O)c3cc4ccccc4o3)c(C(=O)O)s2)cc1 [compound 53470427] | 2.75 µM | 193 µM | > 100 µM | – | – | – | –
12 | O=C(O)c1sc(-c2ccc(OCCC(F)(F)F)cc2)cc1NC(=O)c1c(F)cccc1F [compound 56643020] | – | 68.4 µM | – | – | – | < 0.0156 µM | 0.84 µM
13 | CC(C)c1ccc(-c2cc(NC(=O)c3cccc(F)c3)c(C(=O)O)s2)cc1 [compound 53470444] | 2.81 µM | 37.6 µM | 24.8 µM | – | – | – | –
14 | CC(C)(C)c1ccc(-c2cc(NC(=O)c3cc4ccccc4o3)c(C(=O)O)s2)cc1 [compound 53470424] | 2.83 µM | 34.5 µM | > 100 µM | – | – | – | –
15 | O=C(Nc1cc(-c2ccc(OCC(F)(F)F)cc2)sc1C(=O)O)c1ccc(Br)o1 [compound 56643003] | – | 50 µM | – | – | – | 0.625 µM | 4.9 µM
16 | O=C(O)c1sc(-c2ccc(OCC(F)(F)F)cc2)cc1NC(=O)c1c(F)cc(F)cc1F [compound 56643012] | – | 161 µM | – | – | – | 2.5 to 5 µM | 94.9 µM
17 | Cc1ccc(-c2cc(NC(=O)c3c(F)cccc3F)c(C(=O)O)s2)cc1 [compound 53470422] | 2.43 µM | 57.3 µM | 40.3 µM | – | – | – | –
18 | CC(C)c1ccc(-c2cc(NC(=O)c3c(F)cccc3F)c(C(=O)O)s2)cc1 [compound 53470439] | 1.27 µM | 32.4 µM | 7.09 µM | – | – | – | –
19 | O=C(Nc1cc(-c2ccc(OCCC(F)(F)F)cc2)sc1C(=O)O)c1ccc(Br)o1 [compound 56643022] | – | 41.7 µM | – | – | – | < 0.625 µM | 0.84 µM
20 | CCOc1ccc(-c2cc(NC(=O)c3cccc(F)c3)c(C(=O)O)s2)cc1 [compound 23602076] | 2.61 µM | 61.3 µM | 14.7 µM | – | – | – | –
21 | O=C(Nc1cc(-c2ccc(OCCCC(F)(F)F)cc2)sc1C(=O)O)c1ccc(Br)o1 [compound 56643008] | – | 38.7 µM | – | – | – | < 2.5 µM | 1.78 µM
22 | O=C(Nc1cc(-c2ccccc2)sc1C(=O)O)c1ccc(Cl)s1 [compound 17547200] | – | 71.5 µM | – | 15.1 µM | > 100 µM | – | –

Reference: patent publication US9688653B2, “Ethoxyphenyl thienyl compounds and methods for the treatment of bacterial infections” (Duke University, priority 2013, dated 2017)
